This is an account of results in patent publication US20150197497A1, “SELECTIVE INHIBITORS OF HISTONE DEACETYLASE ISOFORM 6 AND METHODS THEREOF” (DANA-FARBER CANCER INSTITUTE, INC., priority 2011, published 2015).

Experiment [1] has as its target T1, HDAC6 (Homo sapiens, UniProt Q9UBN7).
T1 construct: Recombinant, full-length HDAC protein (BPS Biosciences) was incubated with fluorophore conjugated substrate; purchased BPS Biosciences
T1 sequence (Q9UBN7 1-1215): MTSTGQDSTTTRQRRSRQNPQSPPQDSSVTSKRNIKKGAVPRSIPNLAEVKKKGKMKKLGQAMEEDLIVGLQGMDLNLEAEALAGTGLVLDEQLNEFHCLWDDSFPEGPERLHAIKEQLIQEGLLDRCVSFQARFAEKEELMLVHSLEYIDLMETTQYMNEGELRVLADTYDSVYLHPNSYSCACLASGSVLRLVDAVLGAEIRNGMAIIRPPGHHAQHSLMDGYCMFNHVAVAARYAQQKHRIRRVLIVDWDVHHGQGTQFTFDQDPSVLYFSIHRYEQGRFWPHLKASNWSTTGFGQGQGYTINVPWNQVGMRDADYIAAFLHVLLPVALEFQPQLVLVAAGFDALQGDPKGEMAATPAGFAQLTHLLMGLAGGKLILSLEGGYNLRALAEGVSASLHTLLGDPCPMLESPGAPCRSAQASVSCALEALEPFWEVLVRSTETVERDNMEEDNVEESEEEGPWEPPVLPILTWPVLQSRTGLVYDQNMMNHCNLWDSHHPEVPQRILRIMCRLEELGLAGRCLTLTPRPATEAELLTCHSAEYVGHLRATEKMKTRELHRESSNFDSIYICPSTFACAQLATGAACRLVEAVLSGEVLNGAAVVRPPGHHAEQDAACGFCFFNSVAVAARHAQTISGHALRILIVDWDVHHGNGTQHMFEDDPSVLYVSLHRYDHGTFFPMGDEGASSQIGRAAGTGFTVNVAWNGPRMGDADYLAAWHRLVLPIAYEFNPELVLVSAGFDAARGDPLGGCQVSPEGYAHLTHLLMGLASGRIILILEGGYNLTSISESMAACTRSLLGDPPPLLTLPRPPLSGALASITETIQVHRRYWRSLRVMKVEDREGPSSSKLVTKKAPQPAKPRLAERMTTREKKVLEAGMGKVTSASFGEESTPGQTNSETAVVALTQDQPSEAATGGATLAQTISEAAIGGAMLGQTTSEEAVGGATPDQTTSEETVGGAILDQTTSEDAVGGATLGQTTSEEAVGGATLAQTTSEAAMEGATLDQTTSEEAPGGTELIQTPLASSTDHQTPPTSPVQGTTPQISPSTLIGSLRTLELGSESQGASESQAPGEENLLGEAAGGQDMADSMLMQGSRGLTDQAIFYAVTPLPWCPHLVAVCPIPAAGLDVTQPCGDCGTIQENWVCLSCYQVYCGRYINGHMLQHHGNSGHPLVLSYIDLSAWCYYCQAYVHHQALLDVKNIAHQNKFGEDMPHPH
The experiment in a line: In vitro HDAC enzyme inhibition assay, HDAC6. The note with it: recombinant full-length HDAC6, substrate MAZ1600 9 μM. Format: biochemical. Here is the method: In vitro Histone Deacetylase enzyme assays were performed using Class I (isoforms: HDAC1, HDAC2, HDAC3 and HDAC8), class IIa (isoforms: HDAC4, HDAC5, HDAC7 and HDAC9) and class IIb (isoform HDAC6).
HDAC activities were determined in vitro with an optimized homogenous assay performed in a 384-well plate. Recombinant, full-length HDAC protein (BPS Biosciences) was incubated with fluorophore conjugated substrate, MAZ1600 and MAZ1675, at Km=[S]. […] Reactions were performed in assay buffer (50 mM HEPES, 100 mM KCl, 0.001% Tween-20, 0.05% BSA, 200 μM tris(2-carboxyethyl)phosphine (TCEP), pH 7.4) and followed for fluorogenic release of 7-amino-4-methylcoumarin from substrate upon deacetylase and trypsin enzymatic activity. Fluorescence measurements were obtained every five minutes using a multilabel plate reader and plate-stacker (Envision; Perkin-Elmer). Each plate was analyzed by plate repeat, and the first derivative within the linear range was imported into analytical software (Spotfire DecisionSite and GraphPad Prism). Replicate experimental data from incubations with inhibitor were normalized to controls.

Experiment [2] concerns acetylated histones. Nature of the experiment: High-content image analysis of induction of acetylated histones in A549 cells. The note with it: for EC50: Homo sapiens, A549, 8 h, read-out: EC50 for half-maximal induction of acetylated histones (AcHistone).
Description: (§1) Cells were treated with each test HDACi compound with an automated pin transfer instrument (Janus, Perkin Elmer) and incubated for 8 hours. […] Fixation solution was aspirated and 90 μL of washing solution (0.1% Triton X-100 in PBS) was added prior to 10 minute incubation at 4° C. Washing solution was aspirated and cells were incubated at 4° C. for about 1 hour in blocking solution (0.1% Triton X-100+2% BSA in PBS). Washing solution was aspirated, and cells were incubated for about 1 hour at 4° C. in primary antibody for acetylated-tubulin (Sigma T7451) and acetylated-histone (Cell Signaling #9441L) at a 1:1000 dilution in blocking solution. Primary antibody solution was aspirated, and cells were washed three times in 90 μL of washing solution. […] Secondary antibody and nuclear staining solution was aspirated and cells were washed three times in 90 μL of washing solution. After the third wash, 50 μL of PBS was added to each well. Image acquisition was done on a high content imaging microscope (ImageXpress Micro, Molecular Devices), and image analysis (MetaXpress, Molecular Devices) was performed to obtain average acetylated-tubulin and acetylated-histone signal per cell based on treatment. Replicate experimental data from incubations with inhibitor were normalized to DMSO controls.
Experiment [3] deals with acetylated tubulin. The experiment in a line: High-content image analysis of induction of acetylated tubulin in A549 cells.
Description: as §1

Molecules are shown by their SMILES.

As usually defined, the IC50 is the concentration needed to halve the response being measured. What is called EC50 is the concentration needed to bring the measured effect to its halfway point. Turning to `Cc1ccc2c(c1)nnn2Cc1ccc(C(=O)NO)cc1` [C2, N-hydroxy-4-((5-methyl-1H-benzo[d][1,2,3]triazol-1-yl)methyl)benzamide], the IC50 in experiment [1] is 1470 nM. The half-maximal effective concentration (EC50) in experiment [2] came to 2520 nM; in experiment [3] (Homo sapiens, A549, 8 h, read-out: EC50 for half-maximal induction of acetylated tubulin (AcTubulin)), 124 nM. The “AcHistone/AcTubulin in cell selectivity toward HDAC6” value in experiment [3] (ratio of EC50 acetylated histone to EC50 acetylated tubulin, A549 cells) is 20.3.
As for `O=C(CCCCCCC(=O)Nc1ccccc1)NO` [SAHA, suberoylanilide hydroxamic acid, reference compound], the “levels of acetylated histone, dose response (in words)” value in experiment [2] (A549 cells, FIG. 11) is “dose-dependent increase”. Besides, the concentration giving a half-maximal response (EC50) in experiment [2] turned out to be 143 nM. In addition, the “levels of acetylated tubulin, dose response (in words)” value in experiment [3] (A549 cells, FIG. 11) is reported as “dose-dependent increase”.
